This is an account of results in patent US8486945B2, “Heterocyclic inhibitors of an Hh-signal cascade, medicinal compositions based thereon and methods for treating diseases caused by the aberrant activity of an Hh-signal system” (priority 2007, dated 2013).

The first assay concerns Hh-signalling cascade. Description: Inhibition of SHh-induced alkaline phosphatase in C3H10T1/2 cells (Hh-signalling cascade inhibition). It counts as cell-based. As to conditions: Mus musculus, C3H 10T1/2, half maximal inhibition of SHh (0.3 μg/ml) stimulation of cell alkaline phosphatase. An excerpt: C3H10T1/2 Cells were used for identification of inhibitors of SHh-protein signaling cascade. SHh-protein activates C3H10T1/2 cells, that leads to their osteogenic differentiation [1) Kinto N., Iwamoto M., Enomoto-Iwamoto M., Noji S., Ohuchi H., Yoshioka H., Kataoka H., Wada Y., Yuhao G., Takahashi H. E., Yoshiki S., Yamaguchi A. Fibroblasts expressing Sonic hedgehog induce osteoblast differentiation and ectopic bone formation. FEBS Lett. 1997; 404(2-3): 319-23. 2) Spinella-Jaegle S., Rawadi G., Kawai S., Gallea S., Faucheu C., Mollat P., Courtois B., Bergaud B., Ramez V., Blanchet A. M., Adelmant G., Baron R., Roman-Roman S. Sonic hedgehog increases the commitment of pluripotent mesenchymal cells into the osteoblastic lineage and abolishes adipocytic differentiation. J. Cell Sci. 2001; 114(Pt 11): 2085-94] and, in particular, to expression enhancement of alkaline phosphatase enzyme.
The cells were cultivated in DMEM medium with 10% embryonal calfish serum in incubator at 37° C., 100% humidity and 5% CO2 content. The cells were placed in 384-well plates and left for night. On the next day the tested compounds in concentration of 10 μM were added to the cells, incubated for 30 min, then recombinant (R & D Systems, USA) SHh protein in concentration of 0.3 μg/ml was added and incubation was continued for 3 days. Cells with DMSO instead of a test compound and cells without SHh protein were used as test control. For determination of the cell alkaline phosphatase activity the cells were lysed in the buffer containing 0.2% Triton-X100, lisates were incubated together with proluminescent substrate CSPD (Applied Biosystems, USA) and the resultant luminescence was measured using reader VICTOR^2V (PerkinElmer, USA).
The ability of the compounds to inhibit Hh-signalling cascade was determined using C3H10T1/2 cells in 384-well plates as described in example 1. The compounds were added in triplicates in various concentrations, prepared by multiple dilution of starting solutions (concentration dependences of cell alkaline phosphatase inhibition induced by the addition of tested compounds are shown in FIG. 1). Activity of the compounds was characterized by their concentrations produced half maximal inhibition of stimulation of cell alkaline phosphatase SHh (IC50).
With `O=C(Nc1ccc(-c2cn3ccccc3n2)cc1)c1cccs1` [III-1004, N-(4-(Imidazo[1,2-a]pyridin-2-yl)phenyl)thiophen-2-carboxamide], the IC50 was below 5000 nM.
Regarding `O=C(Nc1ccc(-c2cn3ccccc3n2)cc1)c1ccc(Cl)cc1` [III-1005, 4-Chloro-N-(4-(imidazo[1,2-a]pyridin-2-yl)phenyl)benzamide], the IC50 was below 5000 nM.
Turning to `COc1ccc(C(=O)Nc2ccc(-c3cn4ccccc4n3)cc2)cc1` [III-1006, N-(4-(Imidazo[1,2-a]pyridin-2-yl)phenyl)-4-methoxybenzamide], the IC50 was below 5000 nM.
Still for that read-out and setting: as for `CC(=O)Nc1ccc(-c2cn3ccccc3n2)cc1` [III-1007, N-(4-(Imidazo[1,2-a]pyridin-2-yl)phenyl)acetamide], the figure is above 50000 nM; as for `Cc1cccn2cc(-c3ccc(NC(=O)Cc4ccccc4)cc3)nc12` [III-1013, N-[4-(8-Methylimidazo[1,2-a]pyridin-2-yl)phenyl]-2-phenylacetamide], below 5000 nM.
`O=C(Nc1cccc(-c2cn3ccccc3n2)c1)c1ccc(F)cc1` [III-1015, 4-Fluoro-N-(3-(imidazo[1,2-a]pyridin-2-yl)phenyl)benzamide] registered an IC50 below 500 nM.
The same measure, in the same setting: as for `COc1ccc(C(=O)Nc2cccc(-c3cn4ccccc4n3)c2)cc1` [III-1018, N-(3-(Imidazo[1,2-a]pyridin-2-yl)phenyl)-4-methoxybenzamide], the figure is below 500 nM; as for `COc1ccc(C(=O)Nc2cccc(-c3cn4c(C)cccc4n3)c2)cc1` [III-1019, 4-Methoxy-N-[3-(5-methylimidazo[1,2-a]pyridin-2-yl)phenyl]benzamide], below 500 nM; as for `Cc1nc(-c2ccccc2)sc1C(=O)Nc1cccc(-c2cn3ccccc3n2)c1` [III-1030, 4-Methyl-2-phenylthiazol-5-carboxylic acid [3-(imidazo[1,2-a]pyridin-2-yl)phenyl]amide], below 500 nM.
Still for that read-out and setting: as for `O=C(Nc1ccc(-c2cn3cccnc3n2)cc1)C1CCCC1` [IV-1002, Cyclopentanecarboxylic acid (4-imidazo[1,2-a]pyrimidin-2-ylphenyl)amide], the figure is below 50000 nM; as for `COc1ccccc1C(=O)Nc1ccc(-c2cn3cccnc3n2)cc1` [IV-1004, N-(4-(Imidazo[1,2-a]pyrimidin-2-yl)phenyl)-2-methoxybenzamide], below 500 nM.
Same read-out and setting: as for `CCn1c(C(=O)N2CCC(C(=O)N3CCN(c4ccccc4)CC3)CC2)cc2sccc21` [V-1008, (4-Ethyl-4H-thieno[3,2-b]pyrrol-5-yl)[4-(4-phenyl-piperazine-1-carbonyl)piperidine-1-yl]methanone], the figure is below 50000 nM.
As for `O=C(NCc1ccccn1)C1CCN(C(=O)c2cc3sccc3n2Cc2ccc(F)cc2F)CC1` [V-1030, 1-[4-(2,4-Difluorobenzyl)-4H-thieno[3,2-b]pyrrole-5-carbonyl]piperidine-4-carboxylic acid [(pyridin-2-yl)methyl]amide], the IC50 was below 5000 nM.
In turn, `O=C(NCc1cccnc1)C1CCN(C(=O)c2cc3sccc3n2Cc2ccc(F)cc2)CC1` [V-1031] yielded a 50% inhibitory concentration (IC50) below 5000 nM.
On the same count and under the same terms, as for `CCN(CC)CCCNC(=O)C1CCN(C(=O)c2cc3sccc3n2Cc2ccc(F)cc2)CC1` [V-1032, 1-[4-(4-Fluorobenzyl)-4H-thieno[3,2-b]pyrrole-5-carbonyl]piperidine-4-carboxylic acid 3-(diethylamino)propylamide], the figure is below 500 nM; as for `Cc1ccc(CNC(=O)C2CCN(C(=O)c3cc4sccc4n3Cc3ccc(F)cc3)CC2)cc1` [V-1033, 1-[4-(4-Fluorobenzyl)-4H-thieno[3,2-b]pyrrole-5-carbonyl]piperidine-4-carboxylic acid [(4-methylphenyl)methyl]amide], below 500 nM.
Take `Cc1ccc(NC(=O)C2CCN(C(=O)c3cc4sccc4n3Cc3ccc(F)cc3)CC2)c(C)c1` [V-1034, 1-[4-(4-Fluorobenzyl)-4H-thieno[3,2-b]pyrrole-5-carbonyl]piperidine-4-carboxylic acid (2,4-dimethylphenyl)amide]: the 50% inhibitory concentration (IC50) was below 500 nM.
Still for that read-out and setting: under `Cc1ccc(NC(=O)C2CCN(C(=O)c3cc4sccc4n3Cc3ccc(F)cc3)CC2)cc1C` [V-1035, 1-[4-(4-Fluorobenzyl)-4H-thieno[3,2-b]pyrrole-5-carbonyl]piperidine-4-carboxylic acid (3,4-dimethylphenyl)amide] stands below 500 nM; under `COCCNC(=O)C1CCN(C(=O)c2cc3sccc3n2Cc2ccc(F)cc2)CC1` [V-1036, 1-[4-(4-Fluorobenzyl)-4H-thieno[3,2-b]pyrrole-5-carbonyl]piperidine-4-carboxylic acid (2-methoxyethyl)amide], below 500 nM; under `O=C(NCc1ccc(F)cc1)C1CCN(C(=O)c2cc3sccc3n2Cc2ccc(F)cc2)CC1` [V-1037, 1-[4-(4-Fluorobenzyl)-4H-thieno[3,2-b]pyrrole-5-carbonyl]piperidine-4-carboxylic acid [(4-fluorophenyl)methyl]amide], below 50000 nM.
`CCN1CCCC1CNC(=O)C1CCN(C(=O)c2cc3sccc3n2Cc2ccc(F)cc2)CC1` (stereo not shown) [V-1038, 1-[4-(4-Fluorobenzyl)-4H-thieno[3,2-b]pyrrole-5-carbonyl]piperidine-4-carboxylic acid [(1-ethylpyrrolidin-2-yl)methyl]amide] yielded an IC50 below 500 nM.
Compound `CCOCCCNC(=O)C1CCN(C(=O)c2cc3sccc3n2Cc2ccc(F)cc2)CC1` [V-1039, 1-[4-(4-Fluorobenzyl)-4H-thieno[3,2-b]pyrrole-5-carbonyl]piperidine-4-carboxylic acid (3-ethoxypropyl)amide] displayed an IC50 below 500 nM.
Take `COCCCNC(=O)C1CCN(C(=O)c2cc3sccc3n2Cc2ccc(F)cc2)CC1` [V-1040, 1-[4-(4-Fluorobenzyl)-4H-thieno[3,2-b]pyrrole-5-carbonyl]piperidine-4-carboxylic acid (3-methoxypropyl)amide]: the half-maximal inhibitory concentration (IC50) is below 500 nM.
Compound `O=C(NCCN1CCOCC1)C1CCN(C(=O)c2cc3sccc3n2Cc2ccc(F)cc2F)CC1` [V-1041, 1-[4-(2,4-Difluorobenzyl)-4H-thieno[3,2-b]pyrrole-5-carbonyl]piperidine-4-carboxylic acid (2-N-morpholinoethyl)amide] gave a concentration for half-maximal inhibition (IC50) below 500 nM.
The same measure, in the same setting: as for `O=C(NCCCN1CCCC1)C1CCN(C(=O)c2cc3sccc3n2Cc2ccc(F)cc2)CC1` [V-1042, 1-[4-(4-Fluorobenzyl)-4H-thieno[3,2-b]pyrrole-5-carbonyl]piperidine-4-carboxylic acid (3-N-pyrrolidinopropyl)amide], the figure is below 500 nM; as for `O=C(NCc1ccccn1)C1CCN(C(=O)c2cc3sccc3n2Cc2ccc(Cl)cc2)CC1` [V-1045, 1-[4-(4-Chlorobenzyl)-4H-thieno[3,2-b]pyrrole-5-carbonyl]piperidine-4-carboxylic acid [(pyridin-2-yl)methyl]amide], below 5000 nM.

Staying with this assay, now noted: half maximal inhibition of SHh (0.3 μg/ml) stimulation of cell alkaline phosphatase.
Compound `O=C(c1cc2sccc2n1Cc1ccc(Cl)cc1)N1CCC(C(=O)N2CCCC2)CC1` [V-1027, [4-(4-Chlorobenzyl)-4H-thieno[3,2-b]pyrrol-5-yl]-[4-(pyrrolidin-1-carbonyl)piperidin-1-yl]methanone] registered an IC50 below 5000 nM.
`O=C(c1cc2sccc2n1Cc1ccc(Cl)cc1)N1CCC(C(=O)N2CCCC2)CC1` [V-1044, 1-[4-(4-Chlorobenzyl)-4H-thieno[3,2-b]pyrrole-5-carbonyl]piperidine-4-carboxylic acid tetramethylenamide] returned an IC50 below 500 nM.
